# Data reported in patent publication US6898533B1, “Methods for predicting the biological, chemical, and physical properties of molecules from their spectral properties” (The United States of America as represented by the …, priority 2000, dated 2005).
# Like-named read-outs stand apart in the source and are kept apart here.
# Assays:
# estrogen receptor [1] = test: estrogen receptor binding class of the 30-compound training set
# Text: Two Spectral Data-Activity Relationship (SDAR) models were established, based on ^13C NMR and EI MS spectra, for 30 estrogenic chemicals whose relative binding affinities (RBA) for the alpha (ERα) and beta (ERβ) estrogen receptors are available.
# Strong binders to the estrogen receptor were classified as having a log (RBA) over 0.0, and medium binders to the estrogen receptor were classified as having a log (RBA) of less than or equal to 0.0.
# [2] = target: T1, alpha (ERα) estrogen receptor (Homo sapiens, UniProt P03372); details: cited from earlier work
# T1 sequence (P03372 1-595): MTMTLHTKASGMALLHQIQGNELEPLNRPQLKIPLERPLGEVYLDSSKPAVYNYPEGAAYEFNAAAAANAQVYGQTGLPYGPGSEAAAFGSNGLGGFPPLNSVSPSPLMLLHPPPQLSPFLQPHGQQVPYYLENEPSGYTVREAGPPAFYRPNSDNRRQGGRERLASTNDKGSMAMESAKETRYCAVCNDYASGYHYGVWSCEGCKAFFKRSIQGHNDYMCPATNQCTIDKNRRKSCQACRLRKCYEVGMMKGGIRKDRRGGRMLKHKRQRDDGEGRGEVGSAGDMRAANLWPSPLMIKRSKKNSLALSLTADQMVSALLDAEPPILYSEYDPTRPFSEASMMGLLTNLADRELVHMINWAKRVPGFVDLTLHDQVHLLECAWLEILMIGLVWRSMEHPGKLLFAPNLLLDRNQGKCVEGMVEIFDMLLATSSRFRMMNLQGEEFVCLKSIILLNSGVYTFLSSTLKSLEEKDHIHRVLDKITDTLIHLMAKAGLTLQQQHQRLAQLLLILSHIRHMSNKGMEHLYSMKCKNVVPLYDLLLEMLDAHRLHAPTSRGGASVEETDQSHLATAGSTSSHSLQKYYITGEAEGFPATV
# [3] = target: beta (ERβ) estrogen receptor (Rattus norvegicus, UniProt Q62986); details: cited from earlier work
# Sequence of beta (ERβ) estrogen receptor (Q62986 whole entry): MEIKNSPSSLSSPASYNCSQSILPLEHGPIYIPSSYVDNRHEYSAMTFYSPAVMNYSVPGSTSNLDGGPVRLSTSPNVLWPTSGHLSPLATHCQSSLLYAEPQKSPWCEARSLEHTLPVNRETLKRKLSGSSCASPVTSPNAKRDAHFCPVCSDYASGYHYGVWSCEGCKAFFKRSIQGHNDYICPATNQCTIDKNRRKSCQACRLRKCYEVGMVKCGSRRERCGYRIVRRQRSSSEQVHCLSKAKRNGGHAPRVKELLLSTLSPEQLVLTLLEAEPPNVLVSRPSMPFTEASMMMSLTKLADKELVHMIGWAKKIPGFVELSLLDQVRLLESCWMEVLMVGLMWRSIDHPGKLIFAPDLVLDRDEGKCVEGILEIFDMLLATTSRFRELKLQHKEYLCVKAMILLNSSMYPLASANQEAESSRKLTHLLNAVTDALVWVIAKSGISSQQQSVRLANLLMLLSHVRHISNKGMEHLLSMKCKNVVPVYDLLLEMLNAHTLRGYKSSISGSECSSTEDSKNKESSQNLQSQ
# [4] = quantum yield for photosensitized production of singlet oxygen; assay type: physicochemical
# Text: Phototosensitized oxidations involving singlet oxygen, a strong oxidant, are implicated in photodynamic inactivation of viruses and cells, in phototherapy for cancer, in photocarcinogenesis and in photodegradation of dyes and polymers. Quenching of excited singlet and triplet states of many substances by ground state molecular oxygen produces singlet oxygen; the lowest electronically excited singlet state of molecular oxygen. A compilation of the quantum yields for the formation of singlet oxygen in fluid solutions for over 700 substances is available from the Notre Dame Radiation Laboratory—Radiation Chemistry Data Center.
# The compounds are divided into two endpoint classes based upon having a high quantum yield for production of singlet oxygen (H, QY>0.50) or a low quantum yield for production of singlet oxygen (L, QY<0.50).
# [5] = formation of singlet oxygen in fluid solutions; cited from earlier work
# estrogen receptor [6] = test: estrogen receptor relative binding affinity, expanded training set of 107 compounds; details: input class, 107-compound training set
# Text: The training set included weak estrogen receptor binders in addition to strong and medium estrogen receptor binders.
# For this model, strong estrogen receptor binders were defined as having log(RBA)>−0.25 and weak estrogen receptor binders were defined as having log(RBA)<−3.0. Medium estrogen receptor binders were defined as having log(RBA) in between.
# estrogen receptor [7] = details: 107-compound training set; cited from earlier work
# [8] = SDAR training input endpoint class, 30 compounds
# [9] = class from singlet oxygen quantum yield
# [10] = log of relative binding affinity, 17-β-estradiol RBA = 100
Structure (SMILES),"Endpoint Class [4, 9]",Quantum Yield [5],Class (estrogen receptor [6]),further results
C[C@]12CC[C@H]3[C@@H](CCC4=CC(=O)CC[C@@]43C)[C@@H]1CC[C@@H]2O [Testosterone],,,,Class Input (estrogen receptor [1]; [8]): M (medium binders to the estrogen receptor were classified as having a log (RBA) of less than or equal to 0.0); Log-(RBA) alpha [2]: −2.10; Log-(RBA) beta [3]: −2.10
Cn1ccc2ccccc21 [1-Methylindole],"L (low quantum yield for production of singlet oxygen (L, QY<0.50))",0.35,,
CC/C(=C(/CC)c1ccc(O)cc1)c1ccc(O)cc1 [Diethystibesterol],,,S (strong estrogen receptor binders were defined as having log(RBA)>−0.25),Class Input (estrogen receptor [1]): S (key: Strong binders to the estrogen receptor were classified as having a log (RBA) over 0.0; M: medium binders to the estrogen receptor were classified as having a log (RBA) of less than or equal to 0.0); Log-(RBA) beta [3]: 2.47; log RBA (estrogen receptor [7]): 2.60
C[C@]12CC[C@@H]3c4ccc(O)cc4CC[C@H]3[C@@H]1C[C@@H](O)[C@@H]2O [Estriol],,,,"Log-(RBA) beta [3, 10]: 1.32"
c1ccc2cc3cc4ccccc4cc3cc2c1 [Tetracene],"H (high quantum yield for production of singlet oxygen (H, QY>0.50))",0.70,,
O=c1c(-c2ccc(O)cc2)coc2cc(O)cc(O)c12 [Genistein],,,M (Medium estrogen receptor binders were defined as having log(RBA) in between),Class Input (estrogen receptor [1]; [8]): S (Strong binders to the estrogen receptor were classified as having a log (RBA) over 0.0)
C[C@]12CC[C@@H]3c4ccc(O)cc4CC[C@H]3[C@@H]1CC[C@H]2O [17α-Estradiol],,,S (strong estrogen receptor binders were defined as having log(RBA)>−0.25),Class Input (estrogen receptor [1]; [8]): S (Strong binders to the estrogen receptor were classified as having a log (RBA) over 0.0); log RBA (estrogen receptor [7]): 0.49
c1ccc2nc3ccccc3cc2c1 [Acridine],"H (high quantum yield for production of singlet oxygen (H, QY>0.50))",0.83,,
c1ccc(-c2ccccc2)cc1 [Biphenyl],,,,"Endpoint Class [4]: H (key: high quantum yield for production of singlet oxygen (H, QY>0.50); low quantum yield for production of singlet oxygen (L, QY<0.50))"
"O=S(=O)(c1ccc(O)cc1)c1ccc(O)cc1 [4,4′-Sulfonylphenol]",,,W (weak estrogen receptor binders were defined as having log(RBA)<−3.0),log RBA (estrogen receptor [7]): −3.07
O=C1c2ccccc2Cc2ccccc21 [Anthrone],"L (low quantum yield for production of singlet oxygen (L, QY<0.50))",0.25,,
C(=C(c1ccccc1)c1ccccc1)c1ccccc1 [Triphenylethylene],,,W (weak estrogen receptor binders were defined as having log(RBA)<−3.0),log RBA (estrogen receptor [7]): −2.78
C[C@H]1CCC[C@@H](O)CCCCCc2cc(O)cc(O)c2C(=O)O1 [β-Zearanol],,,,"Class Input (estrogen receptor [1]; [8]): M (medium binders to the estrogen receptor were classified as having a log (RBA) of less than or equal to 0.0); Log-(RBA) alpha [2, 10]: −1.20"
O=C1C=Cc2cccc3cccc1c23 [Phenalen-1-one],"H (high quantum yield for production of singlet oxygen (H, QY>0.50))",0.94,,
O=C(c1ccccc1)c1ccccc1 [Benzophenone],"L (low quantum yield for production of singlet oxygen (L, QY<0.50))",0.29,,
CC(=O)C(C)=O [Biacetyl],"H (high quantum yield for production of singlet oxygen (H, QY>0.50))",0.57,,
CC(C)(C)C(=S)c1ccccc1 [Pivalothiophenone],"H (high quantum yield for production of singlet oxygen (H, QY>0.50))",1.0,,
C#C[C@]1(O)CC[C@H]2[C@@H]3CCc4cc(OC)ccc4[C@H]3CC[C@@]21C [Mestranol],,,S (strong estrogen receptor binders were defined as having log(RBA)>−0.25),RBA (estrogen receptor [7]): 035
"CCCCN(C)C(=O)CCCCCCCCCC[C@@H]1Cc2cc(O)ccc2[C@H]2CC[C@]3(C)[C@@H](O)CC[C@H]3[C@H]12 [ICI 164,384]",,,S (strong estrogen receptor binders were defined as having log(RBA)>−0.25),"Class Input (estrogen receptor [1]; [8]): S (Strong binders to the estrogen receptor were classified as having a log (RBA) over 0.0); Log-(RBA) beta [3, 10]: 2.22; log RBA (estrogen receptor [7]): 1.16"

Structure (SMILES),"Endpoint Class [4, 9]",Quantum Yield [5],Class (estrogen receptor [6]),further results
"Clc1ccc(C(c2ccccc2Cl)C(Cl)(Cl)Cl)cc1 (stereo not drawn) [DDT-o,p′]",,,W (weak estrogen receptor binders were defined as having log(RBA)<−3.0),log RBA (estrogen receptor [7]): −2.85
c1cc2ccc3cccc4ccc(c1)c2c34 [Pyrene],"H (high quantum yield for production of singlet oxygen (H, QY>0.50))",0.71,,
O=C1C=CC(=C(c2ccc(O)cc2)c2ccc(O)cc2)C=C1 [Aurin],,,M (Medium estrogen receptor binders were defined as having log(RBA) in between),log RBA (estrogen receptor [7]): −1.49
CCCCCCCCCc1ccc(O)cc1 [4-Nonylphenol],,,M (Medium estrogen receptor binders were defined as having log(RBA) in between),log RBA (estrogen receptor [7]): −1.45
Oc1ccc(OCc2ccccc2)cc1 [4-Benzyloxyphenol],,,W (weak estrogen receptor binders were defined as having log(RBA)<−3.0),log RBA (estrogen receptor [7]): −3.44
CCC(C)(c1ccc(O)cc1)c1ccc(O)cc1 [Bisphenol B],,,M (Medium estrogen receptor binders were defined as having log(RBA) in between),log RBA (estrogen receptor [7]): −1.07
C(=C\c1ccccc1)/c1ccccc1 [(E)-Stilbene],"L (low quantum yield for production of singlet oxygen (L, QY<0.50))",0.08,,
O=c1c2ccccc2oc2ccccc12 [Xanthen-9-one],"L (low quantum yield for production of singlet oxygen (L, QY<0.50))",0.33,,
O=c1oc2cc(O)ccc2c2oc3cc(O)ccc3c12 [Coumestrol],,,,"Log-(RBA) beta [3, 10]: 2.27"
O=c1ccc2cc3ccoc3cc2o1 [Psoralen],"L (low quantum yield for production of singlet oxygen (L, QY<0.50))",0.0055,,
"O=C1c2ccccc2C(=O)c2ccccc21 [9,10-Anthraquinone]","L (low quantum yield for production of singlet oxygen (L, QY<0.50))",0.15,,
O=C(C(=O)c1ccccc1)c1ccccc1 [Benzil],"H (high quantum yield for production of singlet oxygen (H, QY>0.50))",,,
c1ccc2cc3ccccc3cc2c1 [Anthracene],"H (high quantum yield for production of singlet oxygen (H, QY>0.50))",0.83,,
C[C@]12CCC(=O)C[C@@H]1CC[C@@H]1[C@@H]2CC[C@]2(C)[C@@H](O)CC[C@@H]12 [Dihydrotestosterone],,,,Class Input (estrogen receptor [1]): M (key: Strong binders to the estrogen receptor were classified as having a log (RBA) over 0.0; M: medium binders to the estrogen receptor were classified as having a log (RBA) of less than or equal to 0.0); Log-(RBA) beta [3]: −0.77
c1ccc2c(c1)Cc1ccccc1-2 [Flourene],"H (high quantum yield for production of singlet oxygen (H, QY>0.50))",0.74,,
CC/C(=C(\c1ccccc1)c1ccc(OCCN(C)C)cc1)c1ccccc1 [Tamoxifen],,,S (strong estrogen receptor binders were defined as having log(RBA)>−0.25),Class Input (estrogen receptor [1]; [8]): S (Strong binders to the estrogen receptor were classified as having a log (RBA) over 0.0)
"c1ccc(-c2oc(-c3ccccc3)c3ccccc23)cc1 [1,3-Diphenylisobenzofuran]","L (low quantum yield for production of singlet oxygen (L, QY<0.50))",0.26,,
CC(=O)c1ccccc1 [Acetophenone],"L (low quantum yield for production of singlet oxygen (L, QY<0.50))",0.29,,
"C[C@]12CC[C@@H]3c4ccc(O)cc4[C@@H](O)C[C@H]3[C@@H]1CC[C@@H]2O [Estra-1,3,5(10)-trien-3,6α,17β-triol]",,,S (strong estrogen receptor binders were defined as having log(RBA)>−0.25),log RBA (estrogen receptor [7]): −0.15
